Laboratory results published in US12169196B2, “Human iPSC-based drug testing platform for muscular dystrophy” (The Johns Hopkins University, priority 2019, dated 2024).
“Also recorded” adds a separate entry of the source.

Legend:
mdx^5cv mice = test: Tibialis anterior muscle strength and rate of fatigue; type: in vivo, mouse
Source text: All animal experiments were approved by the Institutional Animal Care and Use Committee (IACUC) of The Johns Hopkins University, School of Medicine (Baltimore, Maryland). Mdx^5cv (B6Ros.Cg-Dmdmdx-5Cv/J) were obtained from The Jackson Laboratory. Mice were maintained in a 12-h light cycle (7 am-7 pm) with ad libitum access to food and water. […] Ginsenoside Rd was suspended in saline containing 10% 1,3-propanediol as vector.
Tibialis anterior muscle strength (maximal isometric force) and rate of fatigue were measured. Briefly, animals were anaesthetized with 3-5% isoflurane and placed in a supine position. The tibia was stabilized and the distal tendon of the tibialis anterior (TA) was surgically released and attached to the load cell (FT03, Grass Instruments, Warwick, RI). The load cell was adjusted via a micromanipulator to stretch the muscle to resting length (aka, optimal length). TA contraction was then triggered via subcutaneous stimulation of the fibular nerve, and the resulting force generated was sampled at 1 kHz and analyzed with acquisition software (PolyVIEW™ 16, Grass Instruments). After contractile function experiments, animals were euthanized and the TAs were harvested and weighed. […] To provide an index of fatigue, muscle tension was measured after 5 minutes of tetanic stimulation (200 ms train duration) repeated at 1 Hz and expressed as a percentage of initial tension.

D2 myoblasts = test system: D2 myoblasts
Procedure: FIG. 7A: 9 primary hit compounds dose-response measured by MyHC antibody immunofluorescent intensity/nuclei. Concentrations of compounds were 0.001, 0.01, 0.1, 1, 2, 3, 4, 6 μM, except for saponin Q. which was 0.001, 0.01, 0.1, 0.2, 0.4, 0.6, 1 μM (n=3 for all). FIG. 7B: 9 primary hit compounds dose-response measured by α-actinin antibody immunofluorescent intensity/nuclei. Concentrations were same as in (FIG. 7A) (n=3 for all). FIGS. 7C-7E: Dose-response measured by cell average length of 3 analogs of saponin Q (n=3). […] (Data=Mean±SEM).
To further evaluate the efficacy of the 9 hit compounds and determine their optimal concentrations, an 8-point dose response assay was conducted, based on three parameters: anti-MyHC immunocytochemistry, anti-α-actinin immunocytochemistry and average cell length (FIGS. 7A-7B).

**Q.** Which results are given for `CC(C)=CCC[C@](C)(O[C@@H]1O[C@H](CO)[C@@H](O)[C@H](O)[C@H]1O)[C@H]1CC[C@]2(C)[C@@H]1[C@H](O)C[C@@H]1[C@@]3(C)CC[C@H](O[C@@H]4O[C@H](CO)[C@@H](O)[C@H](O)[C@H]4O[C@@H]4O[C@H](CO)[C@@H](O)[C@H](O)[C@H]4O)C(C)(C)[C@@H]3CC[C@]12C` [ginsenoside Rd]?
**A.** susceptibility of TA muscles to fatigue (repeated maximal isometric contractions) (mdx^5cv mice; compared to mdx TA muscles): less susceptible to fatigue; also recorded: increased their resistance to fatigue; maximal isometric force generated by tibialis anterior (TA) (mdx^5cv mice; compared with sham control): no significant difference; fusion of DMD hiPSC-derived myoblasts (D2 myoblasts): helped restore fusion; toxicity / cell death (D2 myoblasts): lower toxicity; dose-dependent effect on D2 myoblasts (cell average length) (D2 myoblasts; saponin analog test): dose-dependent effect
